Data reported in PubChem BioAssay AID330 (DTP/NCI, 2004).
“And” between values parts separate entries of the source, which are not always exact repeats. Identical values can stand only once. Inconclusive results and toxic doses are left out. Rule for the calls: active = survival T/C of 150% or more; inactive = T/C below 125% in these data.

Test system: P388 leukemia ip, CD2F1 mice, survival T/C
Assay: NCI In Vivo Anticancer Drug Screen. Data for tumor model P388 Leukemia (intraperitoneal) in CD2F1 (CDF1) mice
Conditions: endpoint: median survival time, higher = longer survival
Summary of the method: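 Mice carrying the transplanted tumor received test compound or vehicle. Survival was recorded in each group, and the value is the treated-group measurement divided by that of the vehicle-treated control group.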

[1] = dose: 100.0 mg/kg/injection, schedule: Q04DX003 (ip), vehicle: Klucel (hydroxypropylcellulose) (HPC)
[2] = dose: 200.0 mg/kg/injection, schedule: Q04DX003 (ip), vehicle: Klucel (hydroxypropylcellulose) (HPC)
[3] = dose: 60.0 mg/kg/injection, schedule: Q01DX005 (ip), vehicle: saline with Tween-80
[4] = dose: 120.0 mg/kg/injection, schedule: Q01DX005 (ip), vehicle: saline with Tween-80
[5] = dose: 240.0 mg/kg/injection, schedule: Q01DX005 (ip), vehicle: saline with Tween-80
[6] = dose: 100.0 mg/kg/injection, schedule: Q01DX001 (ip), vehicle: saline with Tween-80
[7] = dose: 200.0 mg/kg/injection, schedule: Q01DX001 (ip), vehicle: saline with Tween-80
[8] = dose: 400.0 mg/kg/injection, schedule: Q01DX001 (ip), vehicle: saline with Tween-80
[9] = dose: 50.0 mg/kg/injection, schedule: Q01DX009 (ip), vehicle: saline with Tween-80
[10] = dose: 100.0 mg/kg/injection, schedule: Q01DX009 (ip), vehicle: saline with Tween-80
[11] = dose: 200.0 mg/kg/injection, schedule: Q01DX009 (ip), vehicle: saline with Tween-80
[12] = dose: 50.0 mg/kg/injection, schedule: Q01DX005 (ip), vehicle: saline with Tween-80
[13] = dose: 100.0 mg/kg/injection, schedule: Q01DX005 (ip), vehicle: saline with Tween-80
[14] = dose: 12.5 mg/kg/injection, schedule: Q01DX005 (ip), vehicle: saline with Tween-80
[15] = dose: 25.0 mg/kg/injection, schedule: Q01DX005 (ip), vehicle: saline with Tween-80
[16] = dose: 200.0 mg/kg/injection, schedule: Q01DX005 (ip), vehicle: saline with Tween-80

Measured: T/C

CCOC(=O)c1ccc([O-])c([I+]c2ccccc2)c1
inactive: dose: 50.0 mg/kg/injection, schedule: Q04DX003 (ip), vehicle: Klucel (hydroxypropylcellulose) (HPC) 100 % of control | [1] 100 % of control | [2] 101 % of control

CC1(C)[C@@H]2CC[C@H](OC(=O)/C=C/c3ccccc3)[C@@H]2[C@@H]2CC[C@H]3O[C@]321
inactive: dose: 80.0 mg/kg/injection, schedule: Q01DX001 (ip), vehicle: Klucel (hydroxypropylcellulose) (HPC) 109 % of control | dose: 160.0 mg/kg/injection, schedule: Q01DX001 (ip), vehicle: Klucel (hydroxypropylcellulose) (HPC) 102 % of control | dose: 320.0 mg/kg/injection, schedule: Q01DX001 (ip), vehicle: Klucel (hydroxypropylcellulose) (HPC) 100 % of control

O=C(C(Oc1ccc(Cl)cc1)n1cncn1)N1CCOC1C1CCCCC1 (stereo not drawn)
inactive: dose: 50.0 mg/kg/injection, schedule: Q01DX001 (ip), vehicle: Klucel (hydroxypropylcellulose) (HPC) 103 % of control | dose: 100.0 mg/kg/injection, schedule: Q01DX001 (ip), vehicle: Klucel (hydroxypropylcellulose) (HPC) 100 % of control | dose: 200.0 mg/kg/injection, schedule: Q01DX001 (ip), vehicle: Klucel (hydroxypropylcellulose) (HPC) 100 % of control

CCCCC#CC(=O)OCC
inactive: [3] 101 % of control | [4] 106 % of control | [5] 113 % of control

CC(C)=CCCC(C)CCC1NC(C(=O)O)CS1 (stereo not drawn)
inactive: dose: 50.0 mg/kg/injection, schedule: Q01DX009 (ip), vehicle: saline 94 % of control | dose: 100.0 mg/kg/injection, schedule: Q01DX009 (ip), vehicle: saline 94 % of control | dose: 200.0 mg/kg/injection, schedule: Q01DX009 (ip), vehicle: saline 95 % of control

CCC(=O)Oc1ccc(N=Nc2ccc(O)c(/C=N\NC(=O)CNc3ccccc3)c2)cc1
inactive: [6] 88 % of control | [7] 86 % of control | [8] 100 % of control

Cc1ccc(CO)c2ccccc12
inactive: dose: 25.0 mg/kg/injection, schedule: Q01DX009 (ip), vehicle: saline with Tween-80 96 % of control | [9] 107 % of control | [10] 96 % of control | [11] 96 % of control

O=c1[nH]cc([N+](=O)[O-])cc1Cl
inactive: [12] 104 % of control | [13] 95 % of control

O=C(O)Cc1nn[nH]n1
inactive: [1] 107 % of control | [2] 108 % of control

O=C(Oc1ccc(=O)[nH]n1)c1ccccc1
inactive: dose: 60.0 mg/kg/injection, schedule: Q01DX005 (ip), vehicle: Klucel (hydroxypropylcellulose) (HPC) 102 % of control | dose: 120.0 mg/kg/injection, schedule: Q01DX005 (ip), vehicle: Klucel (hydroxypropylcellulose) (HPC) 115 % of control | dose: 240.0 mg/kg/injection, schedule: Q01DX005 (ip), vehicle: Klucel (hydroxypropylcellulose) (HPC) 111 % of control

C/C(=N\NC(=S)N1CCSCC1)c1ccccn1
inactive: dose: 6.25 mg/kg/injection, schedule: Q01DX005 (ip), vehicle: saline with Tween-80 113 % of control | [14] 91 % of control

O=[N+]([O-])c1ccc(N/N=C\c2c(Cl)n(-c3ccccc3)c3ccccc23)c([N+](=O)[O-])c1
inactive: [15] 106 % of control | [12] 100 % of control and 105 % of control | [13] 109 % of control and 117 % of control | dose: 100.0 mg/kg/injection, schedule: Q04DX003 (ip), vehicle: saline with Tween-80 90 % of control | [16] 109 % of control and 114 % of control | dose: 400.0 mg/kg/injection, schedule: Q04DX003 (ip), vehicle: saline with Tween-80 88 % of control

COC1=C(N=[N+]=[N-])C(=O)c2ncccc2C1=O
inactive: dose: 0.63 mg/kg/injection, schedule: Q01DX009 (ip), vehicle: DMSO 100 % of control | dose: 1.25 mg/kg/injection, schedule: Q01DX009 (ip), vehicle: DMSO 100 % of control | dose: 1.56 mg/kg/injection, schedule: Q01DX009 (ip), vehicle: saline with Tween-80 95 % of control | dose: 2.5 mg/kg/injection, schedule: Q01DX009 (ip), vehicle: DMSO 107 % of control | dose: 3.12 mg/kg/injection, schedule: Q01DX009 (ip), vehicle: saline with Tween-80 98 % of control | dose: 5.0 mg/kg/injection, schedule: Q01DX009 (ip), vehicle: DMSO 100 % of control

Cc1nc2ccccc2c(=O)n1/N=C/c1cccc([N+](=O)[O-])c1
inactive: [12] 104 % of control | [13] 99 % of control | [16] 98 % of control

Cc1cc(C)[n+]2n1C(=O)C(c1ccc(C3C(=O)n4c(C)cc(C)[n+]4C3=O)cc1)C2=O (stereo not drawn)
inactive: dose: 50.0 mg/kg/injection, schedule: Q01DX005 (ip), vehicle: Klucel + Tween-80 99 % of control | dose: 100.0 mg/kg/injection, schedule: Q01DX005 (ip), vehicle: Klucel + Tween-80 97 % of control | dose: 200.0 mg/kg/injection, schedule: Q01DX005 (ip), vehicle: Klucel + Tween-80 100 % of control

Cc1cc2c(cc1NCc1ccccc1)C(C)C(=O)CCC(=O)N2Cc1ccccc1 (stereo not drawn)
inactive: [14] 101 % of control | [15] 99 % of control | [12] 90 % of control and 94 % of control

CC1CCC(OC(=O)NCCCl)CC1 (stereo not drawn)
inactive: dose: 50.0 mg/kg/injection, schedule: Q01DX005 (ip), vehicle: Klucel (hydroxypropylcellulose) (HPC) 97 % of control | dose: 100.0 mg/kg/injection, schedule: Q01DX005 (ip), vehicle: Klucel (hydroxypropylcellulose) (HPC) 96 % of control | dose: 200.0 mg/kg/injection, schedule: Q01DX005 (ip), vehicle: Klucel (hydroxypropylcellulose) (HPC) 101 % of control

CC1(C)C=C(C(Br)c2ccccc2)C(=O)c2ccccc21 (stereo not drawn)
inactive: dose: 25.0 mg/kg/injection, schedule: Q01DX009 (ip), vehicle: other 100 % of control | dose: 44.0 mg/kg/injection, schedule: Q01DX009 (ip), vehicle: other 112 % of control | dose: 50.0 mg/kg/injection, schedule: Q01DX009 (ip), vehicle: other 118 % of control | dose: 150.0 mg/kg/injection, schedule: Q01DX009 (ip), vehicle: other 121 % of control | dose: 200.0 mg/kg/injection, schedule: Q01DX009 (ip), vehicle: other 116 % of control

O=C1OC2c3ccccc3C(=O)C2(c2ccccc2)O1 (stereo not drawn)
inactive: [6] 97 % of control | [13] 97 % of control | [7] 97 % of control | [16] 97 % of control | [8] 96 % of control | dose: 400.0 mg/kg/injection, schedule: Q01DX005 (ip), vehicle: saline with Tween-80 96 % of control

CC(=O)OCC1OC(n2cnc3c(=O)n(S(=O)(=O)c4ccc(C)cc4)cnc32)C(OC(C)=O)C1OC(C)=O (stereo not drawn)
inactive: [3] 103 % of control | [4] 106 % of control | [5] 100 % of control

CN(CCCCC(O)CN(C)C(=S)S)C(=S)S (stereo not drawn)
inactive: dose: 50.0 mg/kg/injection, schedule: Q01DX005 (ip), vehicle: saline 98 % of control | dose: 100.0 mg/kg/injection, schedule: Q01DX005 (ip), vehicle: saline 102 % of control | dose: 200.0 mg/kg/injection, schedule: Q01DX005 (ip), vehicle: saline 98 % of control

O=C(N/C(=C\c1ccccc1Cl)c1nc2ccccc2s1)c1ccccc1
inactive: [3] 113 % of control | [4] 113 % of control | [5] 102 % of control

CN1N=Cc2sc(Br)c(Br)c2B1O
inactive: [9] 94 % of control | [10] 101 % of control | [11] 94 % of control
